Consider one compound from patent US20150359884A1, “MULTI-PHOTON ISOMERISATION OF COMBRETASTATINS AND THEIR USE IN THERAPY” (priority 2011, published 2015).

Series [1] can be described thus: Two-photon absorption cross section using reference fluorophore 9-chloroanthracene. In kind it is physicochemical. The following applies: at 620 nm, DCM. An excerpt:
Cell images were overlaid using Adobe Photoshop CS3.
Published cross sections for two photon absorption (σ2, the probability of an absorption process or photon interaction) typically show large variations depending on the method of measurement, using either the Z-scan method or a reference fluorophore, and the power range and pulse duration of the laser used for excitation. We have attempted to determine values of σ2 for E-CA4 and E-ACA4 using a reference fluorophore. 9-Chloroanthracene (9CIA) was selected as a standard fluorophore with an appropriate fluorescence spectrum and for which 2PE cross-sections are available. The values of σ2 at 620 nm for E-CA4 and E-CA4F in DCM were determined to be 2.1±0.5 and 2.75±0.6 GM units respectively. […] Values of σ2 at 620 nm for E-ACA and E-DMAC were both 5.7±1.2. These larger values may be consistent with some charge transfer character of the excitation of these compounds.

The subject of series [2] is Chinese hamster ovary (CHO) cells. The series can be described thus: Fluorescence lifetime imaging (FLIM) of uptake and intracellular concentration in CHO cells. On the procedure: Both HeLa and Chinese hamster ovary (CHO) cells were obtained from the European Collection of Cell Cultures. HeLa cells were cultured in MEM medium (Gibco) containing 10% foetal calf serum, penicillin (100 units/mL), streptomycin (100 μg/mL) and glutamine (2 mM). CHO cells were cultured in DMEM (Gibco) with the same additions as for the HeLa cells. For microscopy the adherent cell cultures were grown in 35 mm diameter glass-bottom culture dishes with optical quality glass (MatTek Corporation) and incubated at 37° C. in a humidified atmosphere containing 5% CO2. Human umbilical vein endothelial cells (HUVECs) were obtained from TCS Cellworks. […]
The fluorescence lifetime imaging system with multiphoton excitation employed lasers for multiphoton excitation consisting of a Ti:Sapphire laser, tuneable between 700 and 1000 nm and providing ca 180 fs pulses at 76 MHz, and an optical parametric oscillator (OPO) pumped by a second Ti:Sapphire laser source. […] Using the various microscope ports it was possible to record the fluorescence in a number of ways. The fluorescence signal at one port was relayed to a spectrometer (Acton 275) and CCD setup (Andor iDUS) so that emission spectra and intensities could be recorded. […] In FLIM mode the fluorescence was isolated by a suitable narrowband interference filter (400IU25 together with BG3 (Comar)). […]

On to `COc1ccc(/C=C/c2cc(OC)c(OC)c(OC)c2)cc1O` [E-CA4, (E)-1-(3′,4′,5′-Trimethoxyphenyl)-2-(4″-methoxy-3″-hydroxy-phenyl)ethene], for which the “Two photon absorption cross section σ2” value in series [1] was found to be 2.1±0.5 GM units. Moreover, the “Concentrating of the drug, factor relative to the surrounding medium” value in series [2] (10 μM in the medium) is on record as 25-75 times. Also, the Intracellular distribution result in series [2] (10 μmol dm^−3, 2PE 628 nm) is on record as “located mainly within the cytoplasmic region of the cell”.
